Results as given in patent US20210162013A1, “COMPOSITIONS AND METHODS FOR IMPROVING THE BIOAVAILABILITY OF GLP1 AND ANALOGUES THEREOF” (Brown University, priority 2018, published 2021).
Like-named read-outs stand apart in the source and are kept apart here. No end group written: not given here.

Assays:
[1] = oral, relative to intravenous administration of GLP-1; cited from earlier work
BKS.Cg WT mice = experiment: Bioavailability: IPGTT, oral PIN/PLA GLP-1 vs intraperitoneal soluble peptide, serum glucose AUC; format: in vivo
Experimental: All mice were then injected intraperitoneally with glucose (3 mg/ml in 0.2 ml saline). Blood was collected at time 0 (pre-glucose) and at indicated times post-glucose. Serum glucose levels were determined as described above.

GLP-1 receptor [2] = molecular target: T1, GLP-1 receptor (Homo sapiens, UniProt P43220); settings: cited from earlier work
GLP-1 receptor [3] = molecular target: T1, GLP-1 receptor; settings: cited from earlier work; remark: listed apart in the source
type 2 diabetic patients = settings: cited from earlier work

T1 sequence (P43220 24-463, species assumed): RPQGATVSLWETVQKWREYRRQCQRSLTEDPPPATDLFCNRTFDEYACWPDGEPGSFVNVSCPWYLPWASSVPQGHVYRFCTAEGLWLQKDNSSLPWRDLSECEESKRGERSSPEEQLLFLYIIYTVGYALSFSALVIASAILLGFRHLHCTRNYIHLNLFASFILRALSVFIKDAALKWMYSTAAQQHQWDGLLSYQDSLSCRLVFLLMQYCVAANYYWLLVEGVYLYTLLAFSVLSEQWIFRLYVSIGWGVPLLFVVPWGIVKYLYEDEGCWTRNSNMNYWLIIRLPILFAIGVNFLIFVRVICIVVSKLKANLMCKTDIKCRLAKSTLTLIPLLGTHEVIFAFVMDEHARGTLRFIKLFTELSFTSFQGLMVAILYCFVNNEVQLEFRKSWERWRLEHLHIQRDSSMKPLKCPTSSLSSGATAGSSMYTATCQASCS

## GLP-1 (7-36 amide) [Free]
[1]
  mean absolute bioavailability: 4%
BKS.Cg WT mice; 30 ug GLP-1/mouse, Free = intraperitoneal soluble peptide, Encap = oral PIN/PLA particles
  AUC 30 ug (serum glucose area under the curve): 7515
BKS.Cg WT mice; 90 ug GLP-1/mouse, Free = intraperitoneal soluble peptide, Encap = oral PIN/PLA particles
  AUC 90 ug (serum glucose area under the curve): 7425
BKS.Cg WT mice; 250 ug GLP-1/mouse, Free = intraperitoneal soluble peptide, Encap = oral PIN/PLA particles
  AUC 250 ug (serum glucose area under the curve): 6262
BKS.Cg WT mice; 250 μg GLP-1, oral particles vs intraperitoneal soluble peptide
  effect on blood glucose in IPGTT (in words): superior

## GLP-1(9-36)-NH2 (EGTFTSDVSSYLEGQAAKEFIAWLVKGR-NH2; UniProt P01275 100-127, looked up, fragment)
GLP-1 receptor [2]
  lower binding affinity compared to the intact peptide: 100 fold
GLP-1 receptor [3]
  decrease in agonistic activity: > 10000 fold

## rGLP-1: rGLP-1 given by continuous infusion in a cited study
Type 2 diabetic patients; 1.25 pmol/kg/min
  decrease in fasting serum glucose: 22.7 mg/dL
Type 2 diabetic patients; 2.5 pmol/kg/min
  decrease in fasting serum glucose: 37.0 mg/dL
Type 2 diabetic patients; 5.0 pmol/kg/min
  decrease in fasting serum glucose: 53.9 mg/dL
Type 2 diabetic patients; 8.5 pmol/kg/min
  decrease in fasting serum glucose: 76.2 mg/dL
